For experiment [1], the target named is hVMAT2 (Homo sapiens, UniProt Q05940). The experiment in a line: FFN206 fluorescent substrate uptake inhibition in hVMAT2-HEK cells. Type of experiment: cell-based. To be noted: for IC50: read-out: IC50, hVMAT2 (uptake inhibition, FFN206), hVMAT2-HEK cells, fluorescent substrate FFN206, n = 4.
Experiment [2] addresses SERT (Mus musculus, UniProt Q60857). The experiment is described as follows: SERTlight two-photon imaging of SERT function in acute mouse brain slices. Format: cell-based.
The target in experiment [3] is hSERT (Homo sapiens, UniProt P31645). Format: cell-based. Particulars: for IC50: read-out: IC50, hSERT (uptake inhibition, APP+), hSERT-HEK cells, fluorescent substrate APP+, n = 4.
The target in experiment [4] is mouse VMAT2 (mVMAT2) (Mus musculus, UniProt Q8BRU6). The experiment in a line: FFN200 two-photon imaging of VMAT2 function in acute mouse brain slices. Type of experiment: cell-based. Particulars: 2 μM for 30 minutes, FFN200 10 μM, dorsal striatum.
The target in experiment [5] is rat SERT (rSERT) (Rattus norvegicus, UniProt P31652). The experiment in a line: [3H]5-HT uptake inhibition in rat brain synaptosomes. Format: biochemical. To be noted: rat brain synaptosomes.
Experiment [6] concerns the target rat VMAT2 (rVMAT2) (Rattus norvegicus, UniProt Q01827). The experiment in a line: [3H]5-HT uptake inhibition in rat brain synaptic vesicular fraction. Type of experiment: biochemical. To be noted: read-out: Uptake Inhibition at VMAT2 IC50, [3H]5-HT (rVMAT2); rat brain synaptic vesicles.
The target in experiment [7] is SERT (Rattus norvegicus, UniProt P31652). The experiment is described as follows: [3H]5-HT release from rat brain synaptosomes via SERT. Format: biochemical. Particulars: for [3H]5-HT Release % Emax via SERT / [3H]5-HT Release EC50 ± SD via SERT: n = 3; for [3H]5-HT Release EC50 ± SD via SERT: active releaser: EC50 < 10 μM and Emax > 30%.
The target of experiment [8] is VMAT2 (Rattus norvegicus, UniProt Q01827). The experiment is described as follows: [3H]5-HT release from rat brain synaptic vesicles via VMAT2. Format: biochemical. Particulars: for Concentration at which [3H]5-HT release exceeds Emax of 30%: rat brain synaptic vesicles; for [3H]5-HT Release % Emax via VMAT2: rat brain vesicular fraction, 5-HT control set as Emax = 100%; for Emax: read-out: [3H]5-HT Release % Emax via VMAT2.

Setting [9] is: read-out: Uptake Inhibition at SERT IC50, [3H]5-HT (rSERT).
[10] abbreviates: read-out: [3H]5-HT Uptake Inhibition IC50 ± SD, SERT, n = 3.

“Also recorded” adds a separate entry of the source. Read-outs that look alike come from different tables or passages of the source.

Chain of hVMAT2 (Q05940 whole entry): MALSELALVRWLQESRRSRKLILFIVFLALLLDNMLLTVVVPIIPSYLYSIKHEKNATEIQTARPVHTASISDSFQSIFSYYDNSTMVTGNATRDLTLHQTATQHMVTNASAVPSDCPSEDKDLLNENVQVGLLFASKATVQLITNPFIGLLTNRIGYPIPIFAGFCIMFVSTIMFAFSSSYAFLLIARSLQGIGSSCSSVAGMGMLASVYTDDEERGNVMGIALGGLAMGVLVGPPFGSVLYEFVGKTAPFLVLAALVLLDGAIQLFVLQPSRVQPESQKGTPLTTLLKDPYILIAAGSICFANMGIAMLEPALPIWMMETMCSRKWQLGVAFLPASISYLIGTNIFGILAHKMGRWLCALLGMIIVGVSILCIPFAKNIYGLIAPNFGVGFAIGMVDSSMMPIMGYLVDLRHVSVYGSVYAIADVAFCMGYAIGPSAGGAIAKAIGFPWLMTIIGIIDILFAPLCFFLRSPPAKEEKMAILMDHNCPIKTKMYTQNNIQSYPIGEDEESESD
Chain of mouse VMAT2 (mVMAT2) (Q8BRU6 whole entry): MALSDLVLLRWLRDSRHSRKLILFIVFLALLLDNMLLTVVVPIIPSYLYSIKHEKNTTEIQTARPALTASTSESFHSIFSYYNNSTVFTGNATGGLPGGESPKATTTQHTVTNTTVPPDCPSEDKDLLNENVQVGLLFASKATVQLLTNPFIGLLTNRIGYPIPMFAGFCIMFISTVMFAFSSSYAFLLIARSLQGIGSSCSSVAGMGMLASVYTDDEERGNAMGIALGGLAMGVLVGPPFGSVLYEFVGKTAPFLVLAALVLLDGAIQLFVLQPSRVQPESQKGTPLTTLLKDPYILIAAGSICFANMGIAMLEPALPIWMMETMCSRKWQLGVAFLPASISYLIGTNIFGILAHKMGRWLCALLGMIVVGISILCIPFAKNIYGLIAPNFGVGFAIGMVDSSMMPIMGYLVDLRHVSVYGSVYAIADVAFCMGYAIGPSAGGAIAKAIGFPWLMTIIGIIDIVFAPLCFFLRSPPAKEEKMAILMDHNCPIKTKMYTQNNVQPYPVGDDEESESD
Chain of rat VMAT2 (rVMAT2) (Q01827 whole entry): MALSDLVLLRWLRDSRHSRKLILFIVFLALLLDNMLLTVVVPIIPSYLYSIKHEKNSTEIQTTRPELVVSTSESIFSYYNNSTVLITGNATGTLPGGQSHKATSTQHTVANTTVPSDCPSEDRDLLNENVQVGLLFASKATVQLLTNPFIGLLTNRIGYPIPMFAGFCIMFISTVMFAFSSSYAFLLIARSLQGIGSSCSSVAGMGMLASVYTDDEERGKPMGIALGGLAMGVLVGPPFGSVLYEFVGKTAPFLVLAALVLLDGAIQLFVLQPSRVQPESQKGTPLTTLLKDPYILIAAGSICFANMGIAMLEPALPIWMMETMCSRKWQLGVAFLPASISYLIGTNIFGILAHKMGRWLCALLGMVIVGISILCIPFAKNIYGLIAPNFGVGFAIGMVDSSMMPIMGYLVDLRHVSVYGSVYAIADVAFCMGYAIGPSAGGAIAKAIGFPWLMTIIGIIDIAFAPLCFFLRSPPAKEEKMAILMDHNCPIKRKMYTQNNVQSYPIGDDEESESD
Chain of VMAT2 (Q01827 whole entry): as above
Chain of SERT (Rattus norvegicus, UniProt P31652) (P31652 whole entry): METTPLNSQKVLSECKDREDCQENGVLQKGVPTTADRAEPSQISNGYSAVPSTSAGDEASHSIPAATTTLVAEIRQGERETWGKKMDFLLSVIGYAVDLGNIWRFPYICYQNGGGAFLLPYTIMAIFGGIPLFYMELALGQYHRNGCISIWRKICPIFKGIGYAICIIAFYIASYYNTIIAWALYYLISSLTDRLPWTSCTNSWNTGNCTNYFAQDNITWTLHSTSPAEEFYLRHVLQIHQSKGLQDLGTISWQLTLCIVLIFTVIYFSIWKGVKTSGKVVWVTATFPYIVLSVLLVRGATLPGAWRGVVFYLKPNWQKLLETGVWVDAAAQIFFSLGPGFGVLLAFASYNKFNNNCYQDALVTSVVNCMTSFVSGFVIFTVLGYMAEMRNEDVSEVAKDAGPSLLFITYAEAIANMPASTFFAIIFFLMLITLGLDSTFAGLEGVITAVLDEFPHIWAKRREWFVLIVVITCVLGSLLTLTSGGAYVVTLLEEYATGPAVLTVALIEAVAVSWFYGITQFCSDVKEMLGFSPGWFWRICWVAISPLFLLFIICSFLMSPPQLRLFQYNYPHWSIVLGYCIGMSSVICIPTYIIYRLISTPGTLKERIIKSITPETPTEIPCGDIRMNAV
Chain of rat SERT (rSERT) (P31652 whole entry): as above
Chain of SERT (Mus musculus, UniProt Q60857) (Q60857 whole entry): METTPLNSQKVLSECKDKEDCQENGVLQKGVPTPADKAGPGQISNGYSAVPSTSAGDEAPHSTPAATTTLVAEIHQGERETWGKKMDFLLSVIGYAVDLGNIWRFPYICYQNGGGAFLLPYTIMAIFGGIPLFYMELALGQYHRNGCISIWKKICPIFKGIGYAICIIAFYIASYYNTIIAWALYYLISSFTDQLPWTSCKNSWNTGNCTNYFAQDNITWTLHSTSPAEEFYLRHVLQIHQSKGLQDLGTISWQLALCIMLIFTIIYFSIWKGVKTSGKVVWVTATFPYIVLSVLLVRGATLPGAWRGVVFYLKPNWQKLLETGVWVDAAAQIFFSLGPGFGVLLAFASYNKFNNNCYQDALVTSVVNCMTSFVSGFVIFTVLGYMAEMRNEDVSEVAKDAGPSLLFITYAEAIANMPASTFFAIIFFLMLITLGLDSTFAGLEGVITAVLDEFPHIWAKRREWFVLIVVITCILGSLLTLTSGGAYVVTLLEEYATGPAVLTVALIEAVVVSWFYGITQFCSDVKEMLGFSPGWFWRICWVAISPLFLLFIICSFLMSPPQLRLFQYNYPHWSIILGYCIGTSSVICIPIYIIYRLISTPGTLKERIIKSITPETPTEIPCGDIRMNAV
Chain of hSERT (P31645 whole entry): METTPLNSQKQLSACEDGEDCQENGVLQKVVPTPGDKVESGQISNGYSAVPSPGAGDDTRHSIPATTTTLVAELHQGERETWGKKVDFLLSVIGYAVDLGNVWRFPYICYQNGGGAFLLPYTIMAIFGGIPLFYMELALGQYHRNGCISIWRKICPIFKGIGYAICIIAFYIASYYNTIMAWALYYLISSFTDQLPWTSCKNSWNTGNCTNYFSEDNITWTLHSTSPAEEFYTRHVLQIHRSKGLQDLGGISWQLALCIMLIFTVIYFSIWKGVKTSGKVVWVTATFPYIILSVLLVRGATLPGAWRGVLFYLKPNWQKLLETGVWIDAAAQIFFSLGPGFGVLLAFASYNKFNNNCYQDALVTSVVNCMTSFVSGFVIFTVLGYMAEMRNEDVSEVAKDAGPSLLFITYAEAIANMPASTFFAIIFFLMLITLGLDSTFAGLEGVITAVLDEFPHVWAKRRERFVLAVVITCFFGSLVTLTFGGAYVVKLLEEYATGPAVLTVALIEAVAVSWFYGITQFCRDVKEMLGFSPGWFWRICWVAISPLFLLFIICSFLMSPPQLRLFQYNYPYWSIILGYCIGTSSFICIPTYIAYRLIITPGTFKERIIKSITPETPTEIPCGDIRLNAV

As a reminder, the IC50 is the concentration at which inhibition is half-maximal. For the molecule `CC[C@H]1C[C@@H]2C[C@H]3c4[nH]c5ccc(C#N)cc5c4CCN(C2)[C@@H]13` [5-cyano-ibogamine], the 50% inhibitory concentration (IC50) in experiment [1] is 3340 nM; in experiment [3], 26 nM; in experiment [5] (setting [9]), 65 nM; in experiment [5] (setting [10]), 65.2 ± 5.4 nM; in experiment [6], 9620 nM. Further, the “Effect on SERTlight labeling of 5-HT axons” value in experiment [2] (0.2 μM (200 nM), dorsal striatum) is “Marked labeling inhibition; also recorded: marked suppression of SERTlight fluorescent labeling”; in experiment [2] (2 μM for 30 minutes, SERTlight 10 μM, SNpr, DS, SSp2/3) it was “ablated SERTlight probe uptake; also recorded: fully inhibited SERTlight label”. Also, in experiment [4], the “Effect on FFN200 uptake / punctate labeling” value was “no inhibitory effects; also recorded: had no effect on labeling pattern”. Besides, the “[3H]5-HT Release % Emax via SERT” value in experiment [7] (rat brain synaptosomes) is recorded as less than 30%. In experiment [7] (rat brain synaptosomes), the “[3H]5-HT Release EC50 ± SD via SERT” value was “inactive”. Besides, in experiment [8], the “Concentration at which [3H]5-HT release exceeds Emax of 30%” value was greater than 10 µM. The “[3H]5-HT Release % Emax via VMAT2” value in experiment [8] is on record as less than 30%.

For the molecule `CCOc1ccc2[nH]c3c(c2c1)CCN1CC2CC(CC)C1C3C2` (stereo not shown) [5-ethoxyibogamine], in experiment [1] (ratio of IC50 values, cell-based fluorometry), the “Selectivity hVMAT2 over hSERT” value is “more than 100 fold”. The half-inhibitory concentration (IC50) was 80 nM in experiment [1] and 9030 nM in experiment [3].

Turning to `COc1cc2c(cc1OC)[C@H]1C[C@@H](O)[C@H](CC(C)C)CN1CC2` [DTBZ, dihydrotetrabenazine, reference compound], the “Effect on FFN200 uptake / punctate labeling” value in experiment [4] is on record as “attenuated; also recorded: inhibited the labeling pattern”.

The term EC50 denotes the concentration needed to bring the measured effect to its halfway point. Turning to `CCC1CC2CC3c4c(c5cc(O)ccc5n4C)CCN(C2)C13` (stereo not shown) [N-methyl-noribogaine], the concentration for half-maximal inhibition (IC50) in experiment [1] was determined as 170 nM; in experiment [3], 59 nM; in experiment [5] (setting [9]), 14 nM; in experiment [5] (setting [10]), 13.6 ± 1.2 nM; in experiment [6], 239 nM. In experiment [7] (rat brain synaptosomes), the “[3H]5-HT Release % Emax via SERT” value is on record as less than 30%. Moreover, the “[3H]5-HT Release EC50 ± SD via SERT” value in experiment [7] (rat brain synaptosomes) is “inactive”. Further, the “[3H]5-HT Release % Emax via VMAT2” value in experiment [8] turned out to be 32%. Besides, the EC50 in experiment [8] (read-out: [3H]5-HT Release EC50 ± SD via VMAT2) came out at 219 ± 36 nM.

Usually Emax stands for the size of the effect at its maximum, as opposed to the concentration needed. For the molecule `CC(N)Cc1ccccc1` (stereo not shown) [amphetamine, reference compound], the “[3H]5-HT release from preloaded synaptosomes (qualitative)” value in experiment [7] (rat brain synaptosomes) was “robust [^3H]5-HT release”. Further, the figures for the maximal response (Emax) in experiment [7] (read-out: [3H]5-HT Release % Emax via SERT) and in experiment [8] were 91% and 98%, respectively.

Regarding `CN(C)CCCN1c2ccccc2CCc2ccccc21` [imipramine, reference compound], in experiment [3], the “Selectivity for SERT over VMAT2” value was greater than 100 fold.

Turning to `CCC1CC2CC3c4oc5ccc(O)cc5c4CCN(C2)C13` (stereo not shown) [oxa-noribogaine], the IC50 stood at 670 nM in experiment [1] and 900 nM in experiment [3].

Turning to `COC(=O)[C@H]1[C@H]2C[C@@H]3c4[nH]c5cc(OC)ccc5c4CCN3C[C@H]2C[C@@H](OC(=O)c2cc(OC)c(OC)c(OC)c2)[C@@H]1OC` [reserpine, reference compound], the maximal response (Emax) in experiment [8] is less than 30%.

With `NCCc1c[nH]c2ccc(O)cc12` [serotonin (5-HT), serotonin, reference compound], in experiment [8], a half-maximal response (EC50) required 585 ± 129 nM and the Emax is 113%.

As for N-methyl-5-cyano-ibogamine, the IC50 stood at 440 nM in experiment [1]; 5 nM in experiment [3]; 10 nM in experiment [5] (setting [9]); 9.8 ± 0.8 nM in experiment [5] (setting [10]); 1320 nM in experiment [6]. Besides, the “[3H]5-HT Release % Emax via SERT” value in experiment [7] (rat brain synaptosomes) is less than 30%. The “[3H]5-HT Release EC50 ± SD via SERT” value in experiment [7] (rat brain synaptosomes) is “inactive”. For the same molecule, the “Concentration at which [3H]5-HT release exceeds Emax of 30%” value in experiment [8] was greater than 10 µM. Further, the “[3H]5-HT Release % Emax via VMAT2” value in experiment [8] is reported as less than 30%.

Values taken from paper PMC13600255 (Journal of the American Chemical Society, 2025).
